Test results: patent publication US8283353B2, “Fused ring compound and use thereof” (Takeda Pharmaceutical Company Limited, priority 2009, dated 2012)

Legend:
human PPARγ = target: T1, human PPARγ (Homo sapiens, UniProt P37231); assay: PPARγ agonistic activity: luciferase reporter assay in PPARγ:RXRα:4ERPP/CHO-K1 cells; type: cell-based; details: CHO-K1, test compound 10^−6 M; luciferase activity of control compound X (1 μM) = 100%, non-administration group = 0%
T1 construct: expressed in transfected cells
T1 sequence (P37231 1-477 isoform P37231-2): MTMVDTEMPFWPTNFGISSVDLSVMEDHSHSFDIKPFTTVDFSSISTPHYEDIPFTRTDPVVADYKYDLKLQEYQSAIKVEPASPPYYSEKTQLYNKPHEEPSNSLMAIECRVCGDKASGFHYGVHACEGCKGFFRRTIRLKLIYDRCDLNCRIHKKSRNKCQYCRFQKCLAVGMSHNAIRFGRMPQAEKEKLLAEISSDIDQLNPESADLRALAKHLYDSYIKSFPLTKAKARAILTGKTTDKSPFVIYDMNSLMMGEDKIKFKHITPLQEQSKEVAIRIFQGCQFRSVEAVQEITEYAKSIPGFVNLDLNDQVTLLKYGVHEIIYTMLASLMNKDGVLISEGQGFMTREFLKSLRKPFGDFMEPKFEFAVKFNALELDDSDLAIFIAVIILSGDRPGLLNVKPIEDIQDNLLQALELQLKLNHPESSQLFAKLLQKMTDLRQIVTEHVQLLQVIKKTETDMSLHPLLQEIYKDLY
T1 sequence (P19793 1-462 partner): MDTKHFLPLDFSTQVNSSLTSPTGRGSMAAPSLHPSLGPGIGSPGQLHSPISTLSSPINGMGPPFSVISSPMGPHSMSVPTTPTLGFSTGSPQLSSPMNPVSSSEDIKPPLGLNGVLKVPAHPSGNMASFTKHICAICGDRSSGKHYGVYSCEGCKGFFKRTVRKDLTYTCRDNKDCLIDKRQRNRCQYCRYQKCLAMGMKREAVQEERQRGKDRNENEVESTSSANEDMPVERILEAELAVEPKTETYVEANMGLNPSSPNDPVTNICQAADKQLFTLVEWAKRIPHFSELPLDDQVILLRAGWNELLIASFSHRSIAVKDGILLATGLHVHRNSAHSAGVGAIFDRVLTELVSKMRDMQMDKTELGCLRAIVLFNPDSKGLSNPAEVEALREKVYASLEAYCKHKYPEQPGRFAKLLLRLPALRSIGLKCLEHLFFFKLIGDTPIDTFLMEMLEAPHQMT
In short: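 CHO-K1 cells stably carrying hPPARγ/RXRα and a 4ERPP luciferase reporter, dosed with test compound for 1 day at 37 °C in Ham's F12 with 0.1% fatty acid-free BSA. Luciferase read by luminescence; activity given as % of 1 μM control compound X (100%) versus untreated (0%).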

human AT1 receptor = target: T2, human AT1 receptor (Homo sapiens, UniProt P30556); assay: AT1 receptor antagonistic activity: [125I]-angiotensin II binding assay on human AT1 receptor-expressing CHO-K1 cellular membrane fraction; details: 22.5 pM [125I]-angiotensin II, 1 hr room temperature
T2 construct: expressed in transfected cells; membrane fraction
T2 sequence (P30556 1-359): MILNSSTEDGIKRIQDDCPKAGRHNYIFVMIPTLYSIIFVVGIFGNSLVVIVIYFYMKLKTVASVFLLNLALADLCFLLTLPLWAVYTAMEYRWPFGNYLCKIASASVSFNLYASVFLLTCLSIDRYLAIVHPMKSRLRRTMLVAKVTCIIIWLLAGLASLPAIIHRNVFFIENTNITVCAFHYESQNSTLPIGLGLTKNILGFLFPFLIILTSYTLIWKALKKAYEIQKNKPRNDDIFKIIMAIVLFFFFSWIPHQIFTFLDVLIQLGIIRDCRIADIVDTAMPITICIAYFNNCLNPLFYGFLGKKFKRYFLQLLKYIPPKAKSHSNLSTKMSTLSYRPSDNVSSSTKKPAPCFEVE
In short: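 Competition binding used radiolabelled angiotensin II on stably transfected CHO-K1 membrane fractions in Tris pH 7.4/MgCl2 buffer, optionally containing 0.3 mg/mL fatty acid-free BSA, 1 hr at room temperature. Filtration onto GF/C separated bound tracer, and nonspecific binding was measured with candesartan.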

activation at 1 µM (human PPARγ)	IC50 (human AT1 receptor)	Structure (SMILES)
54%	1.4 nM	CCCc1c(Cc2ccc(-c3ccccc3-c3noc(=O)[nH]3)cc2)c(=O)n([C@H]2CC[C@H](c3nc(C)no3)CC2)c2ncnn12 [Example 169, 4-[trans-4-(3-methyl-1,2,4-oxadiazol-5-yl)cyclohexyl]-6-{[2′-(5-oxo-4,5-dihydro-1,2,4-oxadiazol-3-yl)biphenyl-4-yl]methyl}-7-propyl[1,2,4]triazolo[1,5-a]pyrimidin-5(4H)-one]
18%	1 nM	CCCc1c(Cc2ccc(-c3ccccc3-c3noc(=O)[nH]3)cc2)c(=O)n([C@H]2CC[C@H](OCCO)CC2)c2ncnn12 [Example 164, 4-[trans-4-(2-hydroxyethoxy)cyclohexyl]-6-{[2′-(5-oxo-4,5-dihydro-1,2,4-oxadiazol-3-yl)biphenyl-4-yl]methyl}-7-propyl[1,2,4]triazolo[1,5-a]pyrimidin-5(4H)-one]
53%	1.9 nM	C=CCOC1CCC(n2c(=O)c(Cc3ccc(-c4ccccc4-c4noc(=O)[nH]4)cc3)c(CCC)n3ncnc23)CC1 (centres unmarked) [Example 153, 6-{[2′-(5-oxo-4,5-dihydro-1,2,4-oxadiazol-3-yl)biphenyl-4-yl]methyl}-4-[4-(prop-2-en-1-yloxy)cyclohexyl]-7-propyl[1,2,4]triazolo[1,5-a]pyrimidin-5(4H)-one]
29%	1.7 nM	CCCc1c(Cc2ccc(-c3ccccc3-c3noc(=O)[nH]3)cc2)c(=O)n([C@H]2CC[C@H](OCC(C)(C)O)CC2)c2nc(C)nn12 [Example 296, 4-[trans-4-(2-hydroxy-2-methylpropoxy)cyclohexyl]-2-methyl-6-{[2′-(5-oxo-4,5-dihydro-1,2,4-oxadiazol-3-yl)biphenyl-4-yl]methyl}-7-propyl[1,2,4]triazolo[1,5-a]pyrimidin-5(4H)-one]
20%	2.2 nM	CCCc1c(Cc2ccc(-c3ccccc3-c3noc(=O)[nH]3)cc2)c(=O)n([C@H]2CC[C@@]3(CCC(CO)O3)CC2)c2ncnn12 (stereo partly drawn) [Example 392, 4-[(5R,8R)-2-(hydroxymethyl)-1-oxaspiro[4.5]dec-8-yl]-6-{[2′-(5-oxo-4,5-dihydro-1,2,4-oxadiazol-3-yl)biphenyl-4-yl]methyl}-7-propyl[1,2,4]triazolo[1,5-a]pyrimidin-5(4H)-one]
19%	1.9 nM	CCCc1c(Cc2ccc(-c3ccccc3-c3noc(=O)[nH]3)cc2)c(=O)n([C@H]2CC[C@H](OCC(C)(O)C(F)(F)F)CC2)c2ncnn12 (stereo partly drawn) [Example 335, 6-{[2′-(5-oxo-4,5-dihydro-1,2,4-oxadiazol-3-yl)biphenyl-4-yl]methyl}-7-propyl-4-[trans-4-(3,3,3-trifluoro-2-hydroxy-2-methylpropoxy)cyclohexyl][1,2,4]triazolo[1,5-a]pyrimidin-5(4H)-one]
26%	1 nM	CCCCc1c(Cc2ccc(-c3ccccc3-c3noc(=O)[nH]3)cc2)c(=O)n(C2CCC(O)CC2)c2ncnn12 (centres unmarked) [Example 147, 7-butyl-4-(4-hydroxycyclohexyl)-6-{[2′-(5-oxo-4,5-dihydro-1,2,4-oxadiazol-3-yl)biphenyl-4-yl]methyl}[1,2,4]triazolo[1,5-a]pyrimidin-5(4H)-one]
17%	2.7 nM	CCCc1c(Cc2ccc(-c3ccccc3-c3noc(=O)[nH]3)cc2)c(=O)n([C@H]2CC[C@@H](OCCO)CC2)c2nc(C)nn12 [Example 288, 4-[cis-4-(2-hydroxyethoxy)cyclohexyl]-2-methyl-6-{[2′-(5-oxo-4,5-dihydro-1,2,4-oxadiazol-3-yl)biphenyl-4-yl]methyl}-7-propyl[1,2,4]triazolo[1,5-a]pyrimidin-5(4H)-one]
43%	2.4 nM	CCCc1c(Cc2ccc(-c3ccccc3-c3noc(=O)[nH]3)cc2)c(=O)n([C@H]2CC[C@H](Oc3ccc(OC)cc3)CC2)c2ncnn12 [Example 271, 4-[trans-4-(4-methoxyphenoxy)cyclohexyl]-6-{[2′-(5-oxo-4,5-dihydro-1,2,4-oxadiazol-3-yl)biphenyl-4-yl]methyl}-7-propyl[1,2,4]triazolo[1,5-a]pyrimidin-5(4H)-one]
48%	1.7 nM	CCCc1c(Cc2ccc(-c3ccccc3-c3noc(=O)[nH]3)cc2)c(=O)n([C@H]2CC[C@H](Oc3ccc(O)cc3)CC2)c2ncnn12 [Example 273, 4-[trans-4-(4-hydroxyphenoxy)cyclohexyl]-6-{[2′-(5-oxo-4,5-dihydro-1,2,4-oxadiazol-3-yl)biphenyl-4-yl]methyl}-7-propyl[1,2,4]triazolo[1,5-a]pyrimidin-5(4H)-one]

The next lines start with the compound.

Structure (SMILES)	activation at 1 µM (human PPARγ)	IC50 (human AT1 receptor)
CCCc1c(Cc2ccc(-c3ccccc3-c3noc(=O)[nH]3)cc2)c(=O)n(Cc2ccc(C(C)=O)cc2)c2ncnn12 [Example 28, 4-(4-acetylbenzyl)-6-{[2′-(5-oxo-4,5-dihydro-1,2,4-oxadiazol-3-yl)biphenyl-4-yl]methyl}-7-propyl[1,2,4]triazolo[1,5-a]pyrimidin-5(4H)-one]	49%	3 nM
CCCc1c(Cc2ccc(-c3ccccc3-c3noc(=O)[nH]3)cc2F)c(=O)n(C2CCCOC2)c2ncnn12 (centres unmarked) [Example 121, 6-{[3-fluoro-2′-(5-oxo-4,5-dihydro-1,2,4-oxadiazol-3-yl)biphenyl-4-yl]methyl}-7-propyl-4-(tetrahydro-2H-pyran-3-yl)[1,2,4]triazolo[1,5-a]pyrimidin-5(4H)-one]	31%	1.9 nM
CCCc1c(Cc2ccc(-c3ccccc3-c3noc(=O)[nH]3)cc2F)c(=O)n([C@H]2CC[C@H](OC(C)C3(O)CCC3)CC2)c2ncnn12 (stereo partly drawn) [Example 371, 6-{[3-fluoro-2′-(5-oxo-4,5-dihydro-1,2,4-oxadiazol-3-yl)biphenyl-4-yl]methyl}-4-{trans-4-[1-(1-hydroxycyclobutyl)ethoxy]cyclohexyl}-7-propyl[1,2,4]triazolo[1,5-a]pyrimidin-5(4H)-one]	33%	2.1 nM
CCCc1c(Cc2ccc(-c3ccccc3-c3noc(=O)[nH]3)cc2F)c(=O)n([C@H]2CC[C@H](OC(CC)C(C)(C)O)CC2)c2ncnn12 (stereo partly drawn) [Example 355, 4-[trans-4-(1-ethyl-2-hydroxy-2-methylpropoxy)cyclohexyl]-6-{[3-fluoro-2′-(5-oxo-4,5-dihydro-1,2,4-oxadiazol-3-yl)biphenyl-4-yl]methyl}-7-propyl[1,2,4]triazolo[1,5-a]pyrimidin-5(4H)-one]	25%	1.7 nM
CCCc1c(Cc2ccc(-c3ccccc3-c3noc(=O)[nH]3)cc2)c(=O)n(Cc2ccc(CC)nc2)c2nc(C)nn12 [Example 7, 4-[(6-ethylpyridin-3-yl)methyl]-2-methyl-6-{[2′-(5-oxo-4,5-dihydro-1,2,4-oxadiazol-3-yl)biphenyl-4-yl]methyl}-7-propyl[1,2,4]triazolo[1,5-a]pyrimidin-5(4H)-one]	26%	2.4 nM
CCCc1c(Cc2ccc(-c3ccccc3-c3noc(=O)[nH]3)c(C)c2)c(=O)n([C@H]2CC[C@H](OCC(C)(C)O)CC2)c2nc(C)nn12 [Example 155, 4-[trans-4-(2-hydroxy-2-methylpropoxy)cyclohexyl]-2-methyl-6-{[2-methyl-2′-(5-oxo-4,5-dihydro-1,2,4-oxadiazol-3-yl)biphenyl-4-yl]methyl}-7-propyl[1,2,4]triazolo[1,5-a]pyrimidin-5(4H)-one]	18%	1.6 nM
